Test results as given in ChEMBL document CHEMBL3351963 (Bioorg Med Chem Lett, 2014).
In brackets after ≈: the same amount, converted by molar mass.

Assays:
[1] = Stability in rat liver S9 fraction at 100 uM after 24 hrs in presence of 1 mM reduced glutathione at 37 degC by HPLC method; assay type: ADME, subcellular; conditions: s9, 24 h
[2] = Stability in pH 7.4 buffer solution; assay type: physicochemical
[3] = Retention time of the compound by HPLC method; assay type: physicochemical
[4] = Prodrug conversion in rat liver S9 fraction assessed as […] GST-mediated metformin formation at 10 to 200 uM in presence of 1 mM reduced glutathione by Michaelis-Menten method; assay type: ADME, subcellular; conditions: s9, 200 µM
[5] = Prodrug conversion in rat liver S9 fraction assessed as half life for metformin formation at 100 uM in presence of 1 mM reduced glutathione by HPLC method; assay type: ADME, subcellular; conditions: gsh
[6] = Distribution coefficient, logD of the compound in mixture of 1-octanol and 50 mM phosphate buffer pH 7.4 by HPLC method; assay type: physicochemical; conditions: 1-octanol/50 mM phosphate buffer
[7] = system: Intestine; assay: Stability in rat small intestine homogenates by HPLC method; assay type: ADME, tissue-based; conditions: tissue homogenate
[8] = Prodrug conversion in human liver S9 fraction assessed as half life for metformin formation at 100 uM in presence of 1 mM reduced glutathione by HPLC method; assay type: ADME, subcellular; conditions: gsh
[9] = target: T1, Glutathione S-transferase Mu 2 (Homo sapiens, UniProt P28161); assay: Prodrug conversion assessed as half life for human recombinant GST-M2-mediated metformin formation at 100 uM in presence of 1 mM reduced glutathione by HPLC method; assay type: ADME; conditions: gsh
T1 sequence (P28161 whole entry): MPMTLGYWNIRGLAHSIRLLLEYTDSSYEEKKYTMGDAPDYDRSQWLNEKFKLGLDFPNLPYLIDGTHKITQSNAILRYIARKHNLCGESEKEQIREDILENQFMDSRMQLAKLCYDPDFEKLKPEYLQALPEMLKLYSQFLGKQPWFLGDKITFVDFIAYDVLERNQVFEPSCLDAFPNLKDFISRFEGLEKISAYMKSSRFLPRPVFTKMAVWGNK

[10] = Stability in rat liver S9 fraction at 100 uM after 24 hrs in absence of 1 mM reduced glutathione at 37 degC by HPLC method; assay type: ADME; conditions: s9, 24 h
[11] = target: T2, Glutathione S-transferase A1 (Homo sapiens, UniProt P08263); assay: Prodrug conversion assessed as half life for human recombinant GST-A1-mediated metformin formation at 100 uM in presence of 1 mM reduced glutathione by HPLC method; assay type: ADME; conditions: gsh
T2 sequence (P08263 whole entry): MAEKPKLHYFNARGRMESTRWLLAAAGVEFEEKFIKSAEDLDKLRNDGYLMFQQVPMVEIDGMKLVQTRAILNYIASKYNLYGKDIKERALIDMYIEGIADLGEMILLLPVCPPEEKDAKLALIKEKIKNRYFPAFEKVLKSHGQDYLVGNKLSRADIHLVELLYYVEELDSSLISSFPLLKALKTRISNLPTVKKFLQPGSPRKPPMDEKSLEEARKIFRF

[12] = system: Liver microsome; assay: Prodrug conversion in rat liver microsomes assessed as half life for metformin formation at 100 uM in presence of a NADPH-regenerating system by HPLC method; assay type: ADME
[13] = target: Glutathione S-transferase P (Homo sapiens, UniProt P09211); assay: Prodrug conversion assessed as half life for human recombinant GST-P1-mediated metformin formation at 100 uM in presence of 1 mM reduced glutathione by HPLC method; assay type: ADME; conditions: gsh
Chain of Glutathione S-transferase P (P09211 whole entry): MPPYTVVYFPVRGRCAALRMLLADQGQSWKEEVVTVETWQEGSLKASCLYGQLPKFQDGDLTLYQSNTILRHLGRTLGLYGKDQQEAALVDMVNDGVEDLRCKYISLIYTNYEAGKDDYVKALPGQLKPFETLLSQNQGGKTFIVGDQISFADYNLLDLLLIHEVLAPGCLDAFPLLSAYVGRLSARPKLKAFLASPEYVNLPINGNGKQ

[14] = Aqueous solubility in pure water incubated for 1 hr by HPLC based shake flask method; assay type: physicochemical
[15] = system: Liver cytosol; assay: Prodrug conversion in rat liver cytosol assessed as half life for metformin formation at 100 uM in presence of a NADPH-regenerating system by HPLC method; assay type: ADME, tissue-based
[16] = Stability in presence of 1 mM reduced glutathione at 100 uM after 24 hrs at 37 degC by HPLC method; assay type: physicochemical
[17] = Stability in pH 1.0 HCl buffer solution measured over 3 weeks by HPLC method; assay type: physicochemical; conditions: pH 1, 504 h

| Stability [1] | Stability [2] | Retention_time [3] [min] | Km [4] [µM] | Vmax [4] [nmol/mg/min] | SMILES | further results |
| --- | --- | --- | --- | --- | --- | --- |
| Stable | Stable | 3 |  |  | CN(C)C(=N)/N=C(\N)NS(=O)(=O)c1ccc([N+](=O)[O-])cc1 |  |
| Stable | Stable | 3 |  |  | CN(C)C(=N)/N=C(\N)NS(=O)(=O)c1ccccc1[N+](=O)[O-] |  |

Second part, the compound before the results:

| SMILES | Stability [1] | Stability [2] | Retention_time [3] [min] | Km [4] [µM] | Vmax [4] [nmol/mg/min] | further results |
| --- | --- | --- | --- | --- | --- | --- |
| CCC[C@@]1(CCc2ccccc2)CC(O)=C([C@H](CC)c2cccc(NS(=O)(=O)c3ccc(C#N)cn3)c2)C(=O)O1 |  |  |  | 143 | 13.9 |  |
| CN(C)C(=N)/N=C(\N)NS(=O)(=O)c1ccc(C(F)(F)F)cc1[N+](=O)[O-] |  | Stable | 3 | 106 | 8.86 | t1/2 [5]: 3.7668 h; logD [6]: 0.86; Stability [7]: Stable; t1/2 [8]: 6.0382 h; t1/2 [9]: 6.1045 h; Stability [10]: Stable; t1/2 [11]: 6.337 h; t1/2 [12]: 9.4752 h; t1/2 [13]: 6.8675 h; solubility thermodynamic at 1 h [14]: 360 µg/mL (≈ 942 µM); t1/2 [15]: 4.6642 h; Stability [16]: Stable; Stability [17]: Stable |
| CN(C)C(=N)N=C(N)N [METFORMIN] |  |  | 15 |  |  |  |
